Data: US9029368B2, “3,7-disubstituted octahydro-2H-pyrido[4,3-E][1,3]oxazin-2-one antibiotics” (Actelion Pharmaceuticals Ltd., priority 2011, dated 2015)
Values after ≈ are worked out from the molar mass of the structure shown.

Test system: S. aureus 29213
Assay: Bacterial growth minimal inhibitory concentrations (microdilution in cation-adjusted Mueller-Hinton Broth, CLSI M7-A7)
Type: cell-based
Conditions: Staphylococcus aureus, 29213, microdilution method
Description: Bacterial Growth Minimal Inhibitory Concentrations: Minimal inhibitory concentrations (MICs; mg/l) were determined in cation-adjusted Mueller-Hinton Broth by a microdilution method following the description given in “Methods for Dilution Antimicrobial Susceptibility Tests for Bacteria that Grow Aerobically”, Approved standard, 7th ed., Clinical and Laboratory Standards Institute (CLSI) Document M7-A7, Wayne, Pa., USA, 2006. All Example compounds were tested against several Gram positive and Gram negative bacteria.

| SMILES | MIC |
| --- | --- |
| COc1ccc2ncc(F)c([C@@H](O)CN3CC[C@@H]4CN(c5ccc6c(c5)OCCO6)C(=O)O[C@H]4C3)c2n1 (mixture of isomers) [Example 13, (4aR*,8aR*)-3-(2,3-dihydro-benzo[1,4]dioxin-6-yl)-7-[(R)-2-(3-fluoro-6-methoxy-[1,5]naphthyridin-4-yl)-2-hydroxy-ethyl]-octahydro-pyrido[4,3-e][1,3]oxazin-2-one] | 0.063 µg/mL |
| COc1ccc2nccc(C(O)CN3CC[C@@H]4CN(c5ccc6c(c5)OCCO6)C(=O)O[C@H]4C3)c2n1 (mixture of isomers) [Example 3, (4aR*,8aR*)-3-(2,3-dihydro-benzo[1,4]dioxin-6-yl)-7-[(2RS)-2-hydroxy-2-(6-methoxy-[1,5]naphthyridin-4-yl)-ethyl]-octahydro-pyrido[4,3-e][1,3]oxazin-2-one] | 0.125 µg/mL (≈ 0.254 µM) |
| COc1ccc2nccc(CCN3CC[C@@H]4CN(c5ccc6c(c5)OCCO6)C(=O)O[C@H]4C3)c2n1 (racemic) [Example 4, rac-(4aR*,8aR*)-3-(2,3-dihydro-benzo[1,4]dioxin-6-yl)-7-[2-(6-methoxy-[1,5]naphthyridin-4-yl)-ethyl]-octahydro-pyrido[4,3-e][1,3]oxazin-2-one] | 0.063 µg/mL (≈ 0.132 µM) |
| COc1ccc2ncc(F)c(C(O)CN3CC[C@@H]4CN(c5ccc6c(c5)OCCO6)C(=O)O[C@H]4C3)c2n1 (mixture of isomers) [Example 6, (4aR*,8aR*)-3-(2,3-dihydro-benzo[1,4]dioxin-6-yl)-7-[(2RS)-2-(3-fluoro-6-methoxy-[1,5]naphthyridin-4-yl)-2-hydroxy-ethyl]-octahydro-pyrido[4,3-e][1,3]oxazin-2-one] | 0.063 µg/mL (≈ 0.123 µM) |
| COc1ccc2ccc(F)c(C(O)CN3CC[C@@H]4CN(c5ccc6c(c5)OCCO6)C(=O)O[C@H]4C3)c2n1 (mixture of isomers) [Example 16, (4aR*,8aR*)-3-(2,3-dihydro-benzo[1,4]dioxin-6-yl)-7-[(2RS)-2-(7-fluoro-2-methoxy-quinolin-8-yl)-2-hydroxy-ethyl]-octahydro-pyrido[4,3-e][1,3]oxazin-2-one] | 0.125 µg/mL (≈ 0.245 µM) |
| COc1cnc2ccc(F)c(C(O)CN3CC[C@@H]4CN(c5ccc6c(c5)OCCO6)C(=O)O[C@H]4C3)c2n1 (mixture of isomers) [Example 17, (4aR*,8aR*)-3-(2,3-dihydro-benzo[1,4]dioxin-6-yl)-7-[(2RS)-2-(6-fluoro-3-methoxy-quinoxalin-5-yl)-2-hydroxy-ethyl]-octahydro-pyrido[4,3-e][1,3]oxazin-2-one] | 0.063 µg/mL (≈ 0.123 µM) |
| COc1cnc2cccc(C(O)CN3CC[C@@H]4CN(c5ccc6c(c5)OCCO6)C(=O)O[C@H]4C3)c2n1 (mixture of isomers) [Example 18, (4aR*,8aR*)-3-(2,3-dihydro-benzo[1,4]dioxin-6-yl)-7-[(2RS)-2-hydroxy-2-(3-methoxy-quinoxalin-5-yl)-ethyl]-octahydro-pyrido[4,3-e][1,3]oxazin-2-one] | 0.063 µg/mL (≈ 0.128 µM) |
| COc1ccc2ncc(F)c(CCN3CC[C@@H]4CN(c5cc6c(nn5)OCCO6)C(=O)O[C@H]4C3)c2n1 (racemic) [Example 23, rac-(4aR*,8aR*)-3-(6,7-dihydro-[1,4]dioxino[2,3-c]pyridazin-3-yl)-7-[2-(3-fluoro-6-methoxy-[1,5]naphthyridin-4-yl)-ethyl]-octahydro-pyrido[4,3-e][1,3]oxazin-2-one] | ≤ 0.031 µg/mL |
| COc1ccc2ncc(F)c(CCN3CC[C@@H]4CN(c5cc6c(cn5)OCCO6)C(=O)O[C@H]4C3)c2n1 (racemic) [Example 24, rac-(4aR*,8aR*)-3-(2,3-dihydro-[1,4]dioxino[2,3-c]pyridin-7-yl)-7-[2-(3-fluoro-6-methoxy-[1,5]naphthyridin-4-yl)-ethyl]-octahydro-pyrido[4,3-e][1,3]oxazin-2-one] | ≤ 0.031 µg/mL |
| COc1ccc2ccc(=O)n(CCN3CC[C@@H]4CN(c5ccc6c(n5)NC(=O)CO6)C(=O)O[C@H]4C3)c2n1 (racemic) [Example 25, rac-(4aR*,8aR*)-7-[2-(7-methoxy-2-oxo-2H-[1,8]naphthyridin-1-yl)-ethyl]-3-(3-oxo-3,4-dihydro-2H-pyrido[3,2-b][1,4]oxazin-6-yl)-octahydro-pyrido[4,3-e][1,3]oxazin-2-one] | ≤ 0.031 µg/mL |
| COc1ccc2ccc(=O)n(CCN3CC[C@@H]4CN(c5ccc6c(n5)NC(=O)CS6)C(=O)O[C@H]4C3)c2n1 (racemic) [Example 26, rac-(4aR*,8aR*)-7-[2-(7-methoxy-2-oxo-2H-[1,8]naphthyridin-1-yl)-ethyl]-3-(3-oxo-3,4-dihydro-2H-pyrido[3,2-b][1,4]thiazin-6-yl)-octahydro-pyrido[4,3-e][1,3]oxazin-2-one] | ≤ 0.031 µg/mL |
| COc1ccc2ncc(F)c(CCN3CC[C@@H]4CN(c5cc6c(nn5)OCCS6)C(=O)O[C@H]4C3)c2n1 (racemic) [Example 27, rac-(4aR*,8aR*)-3-(6,7-dihydro-8-oxa-5-thia-1,2-diaza-naphthalen-3-yl)-7-[2-(3-fluoro-6-methoxy-[1,5]naphthyridin-4-yl)-ethyl]-octahydro-pyrido[4,3-e][1,3]oxazin-2-one] | ≤ 0.031 µg/mL |
| COc1ccc2ncc(=O)n(CCN3CC[C@@H]4CN(c5cc6c(nn5)OCCS6)C(=O)O[C@H]4C3)c2n1 (racemic) [Example 28, rac-(4aR*,8aR*)-3-(6,7-dihydro-8-oxa-5-thia-1,2-diaza-naphthalen-3-yl)-7-[2-(6-methoxy-3-oxo-3H-pyrido[2,3-b]pyrazin-4-yl)-ethyl]-octahydro-pyrido[4,3-e][1,3]oxazin-2-one] | ≤ 0.031 µg/mL |
| O=C1O[C@H]2CN(CC3Cn4c(=O)ccc5ncc(F)c3c54)CC[C@@H]2CN1c1ccc2c(c1)OCCO2 (mixture of isomers) [Example 30, (RS)-4-[(4aR*,8aR*)-3-(2,3-dihydro-benzo[1,4]dioxin-6-yl)-2-oxo-octahydro-pyrido[4,3-e][1,3]oxazin-7-ylmethyl]-3-fluoro-4,5-dihydro-pyrrolo[3,2,1-de][1,5]naphthyridin-7-one] | 0.5 µg/mL (≈ 1.02 µM) |
| COc1ccc2ccc(=O)n(CCN3CC[C@@H]4CN(c5ccc6c(c5)NC(=O)CS6)C(=O)O[C@H]4C3)c2n1 (racemic) [Example 31, rac-(4aR*,8aR*)-7-(2-(7-methoxy-2-oxo-1,8-naphthyridin-1(2H)-yl)ethyl)-3-(3-oxo-3,4-dihydro-2H-benzo[b][1,4]thiazin-6-yl)octahydro-2H-pyrido[4,3-e][1,3]oxazin-2-one] | ≤ 0.031 µg/mL |

Results, then the compound that gave them:

| MIC | SMILES |
| --- | --- |
| ≤ 0.031 µg/mL | COc1ccc2ncc(F)c(CCN3CC[C@@H]4CN(c5ccc6c(c5)NC(=O)CO6)C(=O)O[C@H]4C3)c2n1 (racemic) [Example 5, rac-(4aR*,8aR*)-7-[2-(3-fluoro-6-methoxy-[1,5]naphthyridin-4-yl)-ethyl]3-(3-oxo-3,4-dihydro-2H-benzo[1,4]oxazin-6-yl)-octahydro-pyrido[4,3-e][1,3]oxazin-2-one] |
| ≤ 0.031 µg/mL | COc1ccc2ncc(F)c(CCN3CC[C@@H]4CN(c5ccc6c(c5)NC(=O)CS6)C(=O)O[C@H]4C3)c2n1 (racemic) [Example 7, rac-(4aR*,8aR*)-7-[2-(3-fluoro-6-methoxy-[1,5]naphthyridin-4-yl)-ethyl]-3-(3-oxo-3,4-dihydro-2H-benzo[1,4]thiazin-6-yl)-octahydro-pyrido[4,3-e][1,3]oxazin-2-one] |
| ≤ 0.031 µg/mL | COc1ccc2ccc(=O)n(CCN3CC[C@@H]4CN(c5ccc6c(c5)OCCO6)C(=O)O[C@H]4C3)c2c1 (racemic) [Example 8, rac-(4aR*,8aR*)-3-(2,3-dihydro-benzo[1,4]dioxin-6-yl)-7-[2-(7-methoxy-2-oxo-2H-quinolin-1-yl)-ethyl]-octahydro-pyrido[4,3-e][1,3]oxazin-2-one] |
| ≤ 0.031 µg/mL | COc1ccc2ncc(=O)n(CCN3CC[C@@H]4CN(c5ccc6c(c5)OCCO6)C(=O)O[C@H]4C3)c2c1 (racemic) [Example 9, rac-(4aR*,8aR*)-3-(2,3-dihydro-benzo[1,4]dioxin-6-yl)-7-[2-(7-methoxy-2-oxo-2H-quinoxalin-1-yl)-ethyl]-octahydro-pyrido[4,3-e][1,3]oxazin-2-one] |
| ≤ 0.031 µg/mL | COc1ccc2ccc(=O)n(CCN3CC[C@@H]4CN(c5ccc6c(c5)OCCO6)C(=O)O[C@H]4C3)c2n1 (racemic) [Example 10, rac-(4aR*,8aR*)-3-(2,3-dihydro-benzo[1,4]dioxin-6-yl)-7-[2-(7-methoxy-2-oxo-2H-[1,8]naphthyridin-1-yl)-ethyl]-octahydro-pyrido[4,3-e][1,3]oxazin-2-one] |
| ≤ 0.031 µg/mL | COc1ccc2ncc(=O)n(CCN3CC[C@@H]4CN(c5ccc6c(c5)OCCO6)C(=O)O[C@H]4C3)c2n1 (racemic) [Example 11, rac-(4aR*,8aR*)-3-(2,3-dihydro-benzo[1,4]dioxin-6-yl)-7-[2-(6-methoxy-3-oxo-3H-pyrido[2,3-b]pyrazin-4-yl)-ethyl]-octahydro-pyrido[4,3-e][1,3]oxazin-2-one] |
| ≤ 0.031 µg/mL | COc1cnc2ccc(=O)n(CCN3CC[C@@H]4CN(c5ccc6c(c5)OCCO6)C(=O)O[C@H]4C3)c2n1 (racemic) [Example 12, rac-(4aR*,8aR*)-3-(2,3-dihydro-benzo[1,4]dioxin-6-yl)-7-[2-(3-methoxy-6-oxo-6H-pyrido[2,3-b]pyrazin-5-yl)-ethyl]-octahydro-pyrido[4,3-e][1,3]oxazin-2-one] |
| ≤ 0.031 µg/mL | COc1ccc2ncc(F)c(CCN3CC[C@@H]4CN(c5ccc6c(n5)NC(=O)CO6)C(=O)O[C@H]4C3)c2n1 (racemic) [Example 19, rac-(4aR*,8aR*)-7-[2-(3-fluoro-6-methoxy-[1,5]naphthyridin-4-yl)-ethyl]3-(3-oxo-3,4-dihydro-2H-pyrido[3,2-b][1,4]oxazin-6-yl)-octahydro-pyrido[4,3-e][1,3]oxazin-2-one] |
| ≤ 0.031 µg/mL | COc1ccc2ncc(F)c(CCN3CC[C@@H]4CN(c5cnc6c(c5)OCCO6)C(=O)O[C@H]4C3)c2n1 (racemic) [Example 22, rac-(4aR*,8aR*)-3-(2,3-dihydro-[1,4]dioxino[2,3-b]pyridin-7-yl)-7-[2-(3-fluoro-6-methoxy-[1,5]naphthyridin-4-yl)-ethyl]-octahydro-pyrido[4,3-e][1,3]oxazin-2-one] |
